Assay results: patent US10981911B2, “Imidazopyrrolopyridine as inhibitors of the JAK family of kinases” (Janssen Pharmaceutica NV, priority 2016, dated 2021)

Assays:
Format in all cases: biochemical
JAK2-JH1JH2 = JAK2-JH1JH2 (Homo sapiens (Human), UniProt O60674); assay: Enzymatic inhibition assay (RapidFire HTMS), JAK2; conditions: 30 μM ATP, 40 μM substrate
In short: (§1)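 Quenched with 0.5% TFA plus internal-standard peptide; phosphorylated product quantified by RapidFire C4 SPE–ESI-MS, 11-point 1:3 or 1:4 dilutions in duplicate.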

Tyk2-JH1JH2 = Tyk2-JH1JH2 (Homo sapiens (Human), UniProt P29597, C1142A/C936A); assay: Enzymatic inhibition assay (RapidFire HTMS), Tyk2; conditions: 50 μM ATP, 200 μM substrate
In short: as §1

JAK3-JH1JH2 = JAK3-JH1JH2 (Homo sapiens (Human), UniProt P52333); assay: Enzymatic inhibition assay (RapidFire HTMS), JAK3; conditions: 150 μM ATP, 40 μM substrate
In short: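 JAK3 JH1JH2 reaction incubated 45 min at 25 °C, then quenched with 0.5% TFA containing 0.15 μM internal standard peptide. Phosphopeptide product measured by RapidFire C4 SPE–ESI MS (positive mode); inhibition from product decrease versus uninhibited enzyme, 11-point 1:3 or 1:4 dilutions in duplicate.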

JAK1-JH1JH2 = JAK1-JH1JH2 (Homo sapiens (Human), UniProt P23458); assay: Enzymatic inhibition assay (RapidFire HTMS), JAK1; conditions: 12.5 μM ATP, 200 μM substrate; read-out: JAK1-JH2JH1 IC50
In short: as §1

JAK2-JH1JH2, sequence (O60674 532-1132): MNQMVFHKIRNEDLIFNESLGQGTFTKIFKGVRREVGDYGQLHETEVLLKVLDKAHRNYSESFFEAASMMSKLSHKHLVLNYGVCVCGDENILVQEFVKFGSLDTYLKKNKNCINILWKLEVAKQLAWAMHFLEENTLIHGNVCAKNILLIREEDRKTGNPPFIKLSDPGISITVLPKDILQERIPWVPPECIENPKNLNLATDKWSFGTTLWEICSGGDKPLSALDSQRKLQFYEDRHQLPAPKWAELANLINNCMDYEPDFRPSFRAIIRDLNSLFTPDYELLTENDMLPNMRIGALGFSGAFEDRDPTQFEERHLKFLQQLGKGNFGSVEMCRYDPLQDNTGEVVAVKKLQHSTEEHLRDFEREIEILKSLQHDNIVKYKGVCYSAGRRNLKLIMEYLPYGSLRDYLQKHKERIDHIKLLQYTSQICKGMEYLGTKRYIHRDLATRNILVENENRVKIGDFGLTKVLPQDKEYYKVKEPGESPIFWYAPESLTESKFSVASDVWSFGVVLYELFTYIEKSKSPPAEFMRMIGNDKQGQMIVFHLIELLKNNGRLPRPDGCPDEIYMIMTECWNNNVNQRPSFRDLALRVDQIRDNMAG
JAK3-JH1JH2, sequence (P52333 512-1124): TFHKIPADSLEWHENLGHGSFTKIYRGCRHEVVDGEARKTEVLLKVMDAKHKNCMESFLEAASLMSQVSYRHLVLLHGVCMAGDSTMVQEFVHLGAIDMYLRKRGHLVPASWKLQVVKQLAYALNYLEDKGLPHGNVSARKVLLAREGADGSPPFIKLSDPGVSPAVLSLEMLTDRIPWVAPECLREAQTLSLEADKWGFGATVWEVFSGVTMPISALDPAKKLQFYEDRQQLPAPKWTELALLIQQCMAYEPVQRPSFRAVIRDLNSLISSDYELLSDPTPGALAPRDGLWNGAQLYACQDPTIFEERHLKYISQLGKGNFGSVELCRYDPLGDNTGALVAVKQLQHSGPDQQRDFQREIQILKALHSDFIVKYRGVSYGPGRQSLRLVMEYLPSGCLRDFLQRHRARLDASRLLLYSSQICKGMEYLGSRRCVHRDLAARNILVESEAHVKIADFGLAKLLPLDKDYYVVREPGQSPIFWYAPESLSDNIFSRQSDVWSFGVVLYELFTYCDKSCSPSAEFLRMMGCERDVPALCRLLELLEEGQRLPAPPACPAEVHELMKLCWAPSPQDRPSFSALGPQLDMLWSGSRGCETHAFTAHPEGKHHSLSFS
JAK1-JH1JH2, sequence (P23458 574-1154): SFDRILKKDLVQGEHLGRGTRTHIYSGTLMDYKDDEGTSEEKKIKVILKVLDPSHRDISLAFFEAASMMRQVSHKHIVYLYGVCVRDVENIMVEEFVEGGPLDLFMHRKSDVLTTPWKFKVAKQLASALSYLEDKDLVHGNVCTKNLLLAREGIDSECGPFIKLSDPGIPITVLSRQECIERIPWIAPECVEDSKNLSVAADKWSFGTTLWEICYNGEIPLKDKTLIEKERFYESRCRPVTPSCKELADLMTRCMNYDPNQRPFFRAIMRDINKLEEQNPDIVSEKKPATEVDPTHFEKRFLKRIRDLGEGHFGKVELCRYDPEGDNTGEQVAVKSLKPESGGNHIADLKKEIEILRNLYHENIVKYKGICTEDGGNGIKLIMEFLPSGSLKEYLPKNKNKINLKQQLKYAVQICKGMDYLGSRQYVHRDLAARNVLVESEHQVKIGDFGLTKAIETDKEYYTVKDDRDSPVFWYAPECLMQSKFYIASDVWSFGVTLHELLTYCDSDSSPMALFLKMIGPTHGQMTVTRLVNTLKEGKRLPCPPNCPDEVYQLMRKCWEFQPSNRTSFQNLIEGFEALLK
Tyk2-JH1JH2, sequence (P29597 580-1182 C936A/C1142A): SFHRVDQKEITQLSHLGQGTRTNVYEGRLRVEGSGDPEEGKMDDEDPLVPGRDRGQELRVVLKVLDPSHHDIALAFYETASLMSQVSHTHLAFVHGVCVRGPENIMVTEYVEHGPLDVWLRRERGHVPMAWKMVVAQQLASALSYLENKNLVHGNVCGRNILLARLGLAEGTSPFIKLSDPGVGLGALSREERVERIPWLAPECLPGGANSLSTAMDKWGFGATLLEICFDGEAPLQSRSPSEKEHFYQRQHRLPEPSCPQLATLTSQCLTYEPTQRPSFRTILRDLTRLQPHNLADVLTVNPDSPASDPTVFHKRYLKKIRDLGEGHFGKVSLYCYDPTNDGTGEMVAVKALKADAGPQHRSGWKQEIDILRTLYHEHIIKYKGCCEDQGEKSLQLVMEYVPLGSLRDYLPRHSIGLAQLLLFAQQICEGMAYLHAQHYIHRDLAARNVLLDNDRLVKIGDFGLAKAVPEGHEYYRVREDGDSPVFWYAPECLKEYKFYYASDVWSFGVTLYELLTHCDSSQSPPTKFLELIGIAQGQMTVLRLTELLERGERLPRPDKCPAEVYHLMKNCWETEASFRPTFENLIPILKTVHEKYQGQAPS

IC50 (JAK2-JH1JH2) [nM] | IC50 (Tyk2-JH1JH2) [nM] | IC50 (JAK3-JH1JH2) [nM] | IC50 (JAK1-JH1JH2) [nM] | Structure (SMILES)
73.2 | 86.2 | 754 | 0.6 | N#CC[C@H]1CC[C@H](n2c(-c3ccc(C#N)nc3)nc3cnc4[nH]ccc4c32)CC1 [Ex. 115, 5-(1-((1r,4r)-4-(Cyanomethyl)cyclohexyl)-1,6-dihydroimidazo[4,5-d]pyrrolo[2,3-b]pyridin-2-yl)picolinonitrile]
86.7 | 50.9 | 1190 | 0.6 | CC(C)(O)CC(=O)NCc1nc2cnc3[nH]ccc3c2n1[C@H]1CC[C@H](CC#N)CC1 [Ex. 116, N-((1-((1r,4r)-4-(Cyanomethyl)cyclohexyl)-1,6-dihydroimidazo[4,5-d]pyrrolo[2,3-b]pyridin-2-yl)methyl)-3-hydroxy-3-methylbutanamide]
3.5 | 5.4 | 50.5 | 0.7 | N#CC[C@H]1CC[C@H](n2c(CC(=O)Nc3ccncc3)nc3cnc4[nH]ccc4c32)CC1 [Ex. 118, 2-(1-((1r,4r)-4-(Cyanomethyl)cyclohexyl)-1,6-dihydroimidazo[4,5-d]pyrrolo[2,3-b]pyridin-2-yl)-N-(pyridin-4-yl)acetamide]
8.8 | 15.7 | 117 | 0.7 | N#CC[C@H]1CC[C@H](n2c(-c3cncs3)nc3cnc4[nH]ccc4c32)CC1 [Ex. 119, 2-((1r,4r)-4-(2-(Thiazol-5-yl)imidazo[4,5-d]pyrrolo[2,3-b]pyridin-1(6H)-yl)cyclohexyl)acetonitrile]
16 | 19.1 | 228 | 0.7 | COCCNC(=O)Cc1nc2cnc3[nH]ccc3c2n1[C@H]1CC[C@H](CC#N)CC1 [Ex. 120, 2-(1-((1r,4r)-4-(Cyanomethyl)cyclohexyl)-1,6-dihydroimidazo[4,5-d]pyrrolo[2,3-b]pyridin-2-yl)-N-(2-methoxyethyl)acetamide]
11.4 | 44.3 | 431 | 0.7 | N#CC[C@H]1CC[C@H](n2c(-c3ccc(C(=O)c4ccc(CO)cc4)cc3)nc3cnc4[nH]ccc4c32)CC1 [Ex. 121, 2-((1r,4r)-4-(2-(4-(4-(Hydroxymethyl)benzoyl)phenyl)imidazo[4,5-d]pyrrolo[2,3-b]pyridin-1(6H)-yl)cyclohexyl)acetonitrile]
20.8 | 21.6 | 437 | 0.7 | N#CC[C@H]1CC[C@H](n2c(C(=O)NC3COC3)nc3cnc4[nH]ccc4c32)CC1 [Ex. 122, 1-((1r,4r)-4-(Cyanomethyl)cyclohexyl)-N-(oxetan-3-yl)-1,6-dihydroimidazo[4,5-d]pyrrolo[2,3-b]pyridine-2-carboxamide]
4.4 | 18.1 | 141 | 0.7 | N#CC[C@H]1CC[C@H](n2c(CO/N=C(\N)c3ccccc3)nc3cnc4[nH]ccc4c32)CC1 [Ex. 124, (Z*)—N-((1-((1r,4r)-4-(Cyanomethyl)cyclohexyl)-1,6-dihydroimidazo[4,5-d]pyrrolo[2,3-b]pyridin-2-yl)methoxy)benzimidamide]
27.1 | 14.9 | 622 | 0.7 | COCC/C(=N/O)NCc1nc2cnc3[nH]ccc3c2n1[C@H]1CC[C@H](CC#N)CC1 [Ex. 125]
19.4 | 14.2 | 317 | 0.7 | C#Cc1ccc(C(=O)c2ccc(COCc3nc4cnc5[nH]ccc5c4n3[C@H]3CC[C@H](CC#N)CC3)cc2)cc1 [Ex. 126, 2-((1r,4r)-4-(2-(((4-(4-Ethynylbenzoyl)benzyl)oxy)methyl)imidazo[4,5-d]pyrrolo[2,3-b]pyridin-1(6H)-yl)cyclohexyl)acetonitrile]
69.4 | 12.8 | 788 | 0.7 | N#CC[C@H]1CC[C@H](n2c(CC(=O)N3CC[C@@H](O)C3)nc3cnc4[nH]ccc4c32)CC1 [Ex. 127, 2-((1r,4r)-4-(2-(2-((R)-3-Hydroxypyrrolidin-1-yl)-2-oxoethyl)imidazo[4,5-d]pyrrolo[2,3-b]pyridin-1(6H)-yl)cyclohexyl)acetonitrile]
110 | 64.4 | 1090 | 0.7 | CCOC(=O)N1CC(c2nc3cnc4[nH]ccc4c3n2[C@H]2CC[C@H](CC#N)CC2)C1 [Ex. 128, Ethyl 3-(1-((1r,4r)-4-(Cyanomethyl)cyclohexyl)-1,6-dihydroimidazo[4,5-d]pyrrolo[2,3-b]pyridin-2-yl)azetidine-1-carboxylate]
150 | 10.7 | 2690 | 0.8 | CC(C)c1noc(=O)n1Cc1nc2cnc3[nH]ccc3c2n1[C@H]1CC[C@H](CC#N)CC1 [Ex. 129, 2-((1r,4r)-4-(2-((3-Isopropyl-5-oxo-1,2,4-oxadiazol-4(5H)-yl)methyl)imidazo[4,5-d]pyrrolo[2,3-b]pyridin-1(6H)-yl)cyclohexyl)acetonitrile]
15.7 | 19.4 | 130 | 0.8 | C#Cc1ccc(C(=O)c2ccc(OCc3nc4cnc5[nH]ccc5c4n3[C@H]3CC[C@H](CC#N)CC3)cc2)cc1 [Ex. 130, 2-((1r,4r)-4-(2-((4-(4-Ethynylbenzoyl)phenoxy)methyl)imidazo[4,5-d]pyrrolo[2,3-b]pyridin-1(6H)-yl)cyclohexyl)acetonitrile]
5.6 | 10.5 | 100 | 0.8 | N#CC[C@H]1CC[C@H](n2c(CC(=O)NC34CCC(CO)(CC3)C4)nc3cnc4[nH]ccc4c32)CC1 [Ex. 131, 2-(1-((1r,4r)-4-(Cyanomethyl)cyclohexyl)-1,6-dihydroimidazo[4,5-d]pyrrolo[2,3-b]pyridin-2-yl)-N-(4-(hydroxymethyl)bicyclo[2.2.1]heptan-1-yl)acetamide]
13.8 | 16.1 | 61.7 | 0.8 | CC(C)(O)CNC(=O)Cc1nc2cnc3[nH]cc(F)c3c2n1[C@H]1CC[C@H](CC#N)CC1 [Ex. 132, 2-(1-((1r,4r)-4-(Cyanomethyl)cyclohexyl)-8-fluoro-1,6-dihydroimidazo[4,5-d]pyrrolo[2,3-b]pyridin-2-yl)-N-(2-hydroxy-2-methylpropyl)acetamide]
9.4 | 19.8 | 154 | 0.8 | CNC(=O)c1nc2cnc3[nH]ccc3c2n1[C@H]1CC[C@H](CC#N)CC1 [Ex. 133, 1-((1r,4r)-4-(Cyanomethyl)cyclohexyl)-N-methyl-1,6-dihydroimidazo[4,5-d]pyrrolo[2,3-b]pyridine-2-carboxamide]
118 | 91.2 | 1290 | 0.8 | CS(=O)(=O)N1CC(c2nc3cnc4[nH]ccc4c3n2[C@H]2CC[C@H](CC#N)CC2)C1 [Ex. 134, 2-((1r,4r)-4-(2-(1-(Methylsulfonyl)azetidin-3-yl)imidazo[4,5-d]pyrrolo[2,3-b]pyridin-1(6H)-yl)cyclohexyl)acetonitrile]
25.1 | 14.2 | 280 | 0.9 | CC(C)COC(=O)NCc1nc2cnc3[nH]ccc3c2n1[C@H]1CC[C@H](CC#N)CC1 [Ex. 137, Isobutyl ((1-((1r,4r)-4-(Cyanomethyl)cyclohexyl)-1,6-dihydroimidazo[4,5-d]pyrrolo[2,3-b]pyridin-2-yl)methyl)carbamate]
18.9 | 18.7 | 195 | 0.9 | N#CCCNC(=O)c1nc2cnc3[nH]ccc3c2n1[C@H]1CC[C@H](CC#N)CC1 [Ex. 138, N-(2-Cyanoethyl)-1-((1r,4r)-4-(cyanomethyl)cyclohexyl)-1,6-dihydroimidazo[4,5-d]pyrrolo[2,3-b]pyridine-2-carboxamide]
66.9 | 53.5 | 746 | 0.9 | N#CC[C@H]1CC[C@H](n2c(CNC(=O)C3CCCCC3)nc3cnc4[nH]ccc4c32)CC1 [Ex. 139, N-((1-((1r,4r)-4-(Cyanomethyl)cyclohexyl)-1,6-dihydroimidazo[4,5-d]pyrrolo[2,3-b]pyridin-2-yl)methyl)cyclohexanecarboxamide]
4.5 | 14.9 | 56.8 | 0.9 | N#CC[C@H]1CC[C@H](n2c(C3NC(C4CC4)=NO3)nc3cnc4[nH]ccc4c32)CC1 (stereo partly drawn) [Ex. 140, 2-((1r,4r)-4-(2-(3-Cyclopropyl-4,5-dihydro-1,2,4-oxadiazol-5-yl)imidazo[4,5-d]pyrrolo[2,3-b]pyridin-1(6H)-yl)cyclohexyl)acetonitrile]
95.8 | 66.7 | 4070 | 0.9 | N#CC[C@H]1CC[C@H](n2c(CNS(=O)(=O)C3CCCCC3)nc3cnc4[nH]ccc4c32)CC1 [Ex. 141, N-((1-((1r,4r)-4-(Cyanomethyl)cyclohexyl)-1,6-dihydroimidazo[4,5-d]pyrrolo[2,3-b]pyridin-2-yl)methyl)cyclohexanesulfonamide]
10 | 6.9 | 383 | 0.9 | CS(C)(=O)=NCc1nc2cnc3[nH]ccc3c2n1[C@H]1CC[C@H](CC#N)CC1 [Ex. 142, 2-((1r,4r)-4-(2-(((Dimethyl(oxo)-λ^6-sulfanylidene)amino)methyl)imidazo[4,5-d]pyrrolo[2,3-b]pyridin-1(6H)-yl)cyclohexyl)acetonitrile]
